Results from the OligoGym collection.
“And” between values parts separate entries of the source, which are not always exact repeats. Equal entries are not always repeated. After the bases stand the sugars from the 5' end (letter, count) and the backbone: PS all phosphorothioate, else s phosphorothioate and o phosphodiester by linkage. Methylation of C is not given here. k = constrained ethyl (cEt); d = 2'-deoxy (DNA)

Biological target: MALAT1
Conditions: ASO, A431, 0.005 µM

Row | Sequence | target mRNA inhibition
1 | ACGCTAAGCAATATCT (sugars k3 d10 k3, PS) | 37%
2 | GTATTATAATAGAGCT (sugars k3 d10 k3, PS) | 4%
3 | GCCAACTTGGAAGTTG (sugars k3 d10 k3, PS) | -19%
4 | CTTGAGATTTGGGCTT (sugars k3 d10 k3, PS) | 12% and 2%
5 | CAGATGCAAGTTAAAC (sugars k3 d10 k3, PS) | 40%
6 | TTATACATCAAGGATG (sugars k3 d10 k3, PS) | 4%
7 | TCTAACCCAGTTTGTC (sugars k3 d10 k3, PS) | 31%
8 | CTTGATCCCAACTCAT (sugars k3 d10 k3, PS) | 11%
9 | TAACTGATCTGACTTT (sugars k3 d10 k3, PS) | 26%
10 | AGCTTCATCAAACACT (sugars k3 d10 k3, PS) | 3%
11 | TGCAGGGACGGTTGAG (sugars k3 d10 k3, PS) | -22%
12 | AAATACTTCATTACCC (sugars k3 d10 k3, PS) | 24%
13 | ACATCAAGGATGTATA (sugars k3 d10 k3, PS) | -6%
14 | GGCGGACTTTCTCCCC (sugars k3 d10 k3, PS) | -17%
15 | TATAAGGACAGCTAAG (sugars k3 d10 k3, PS) | 21%
16 | CCAAAAGCCTTCTGCC (sugars k3 d10 k3, PS) | 34%
17 | GAGATACCTGTCTGAG (sugars k3 d10 k3, PS) | 40%
18 | CAACTGGGAATACTCT (sugars k3 d10 k3, PS) | 20%
19 | AATACCCTTCTGTTAA (sugars k3 d10 k3, PS) | 16%
20 | TCTTCCGCTCAAATCC (sugars k3 d10 k3, PS) | 41%
21 | CTGAAGAGCATTGGAG (sugars k3 d10 k3, PS) | 50%
22 | CTCGATGGAAAAATTT (sugars k3 d10 k3, PS) | 8%
23 | GGATTTGAACCCCGTC (sugars k3 d10 k3, PS) | 30%

Row | Sequence | target mRNA inhibition
24 | CTTATCCCTAACATGC (sugars k3 d10 k3, PS) | 41%
25 | CAACAATCACTACTCC (sugars k3 d10 k3, PS) | 16%
26 | GTTAACAATTTGCAGG (sugars k3 d10 k3, PS) | 40%
27 | CCTCACGGATTTTTAC (sugars k3 d10 k3, PS) | -1%
28 | TATGGATCATGCCCAC (sugars k3 d10 k3, PS) | 27%
29 | GACCATCCCAAAATGC (sugars k3 d10 k3, PS) | 8%
30 | TAGATTCACTGAATCC (sugars k3 d10 k3, PS) | -4%
31 | CTGAAATCCCCTAGGG (sugars k3 d10 k3, PS) | 30%
32 | GACTTGGCAGTCTGCC (sugars k3 d10 k3, PS) | 10%
33 | CTGGAAAAGCTAGGGA (sugars k3 d10 k3, PS) | -13%
34 | ATATTTTAAACGGGTC (sugars k3 d10 k3, PS) | 16%
35 | GAAAAAGCTTGTTCAC (sugars k3 d10 k3, PS) | 28%
36 | TCTGTTACACCTTGAG (sugars k3 d10 k3, PS) | 48% and 64%
37 | TCTCTTGAGGGACAGT (sugars k3 d10 k3, PS) | -7%
38 | TGAACCGGAGCAGGAA (sugars k3 d10 k3, PS) | 5%
39 | CCCCCAAGATTGCCCC (sugars k3 d10 k3, PS) | 11%
40 | AGGTATGAGCTTCAGA (sugars k3 d10 k3, PS) | 1%
41 | CACTGCCAACTAATTG (sugars k3 d10 k3, PS) | 39%
42 | ATTCACCAAGGAGCTG (sugars k3 d10 k3, PS) | 39%
43 | GATCACCTTCCGCCGC (sugars k3 d10 k3, PS) | 6%
44 | CTTCTGAACCGGAGCA (sugars k3 d10 k3, PS) | -27%
45 | TCGGTTTAATCTCTTT (sugars k3 d10 k3, PS) | 63% and 73%
46 | ACAAAACGAATTCAGG (sugars k3 d10 k3, PS) | 31%

Row | Sequence | target mRNA inhibition
47 | CCTACAACACCCGGAA (sugars k3 d10 k3, PS) | 0%
48 | CCCCAAAAGCTCTATA (sugars k3 d10 k3, PS) | 8%
49 | TTCGGATGCTTCACTC (sugars k3 d10 k3, PS) | 48%
50 | ATTCAAGCTGAACTAT (sugars k3 d10 k3, PS) | 10%
51 | CTATTCTTTTCTTCGC (sugars k3 d10 k3, PS) | 37%
52 | TAAAGTAAATAGGCTA (sugars k3 d10 k3, PS) | 21%
53 | GTCAAGCTCCTGACAA (sugars k3 d10 k3, PS) | 33%
54 | AGAGAAGAATCCCCCC (sugars k3 d10 k3, PS) | 28%
55 | TACAACAAGTAAGCCC (sugars k3 d10 k3, PS) | 20%
56 | GCTGATAAACTCACTG (sugars k3 d10 k3, PS) | 55% and 65%
57 | TCATTACCCCAACTAA (sugars k3 d10 k3, PS) | 17%
58 | GAGCATTGGAGATCAG (sugars k3 d10 k3, PS) | 29%
59 | TTCAGACCTTCTGAAC (sugars k3 d10 k3, PS) | -8%
60 | AGAAGAATCCCCCCCA (sugars k3 d10 k3, PS) | -13%
61 | CGGCCCCCCAGTTGCC (sugars k3 d10 k3, PS) | 17%
62 | TCCTGAAATCCCCTAG (sugars k3 d10 k3, PS) | -12%
63 | CAAGCATTCCTTCGGA (sugars k3 d10 k3, PS) | 25%
64 | ATGGCTTTGTCTCCGA (sugars k3 d10 k3, PS) | 15%
65 | GCGAGTTCAAGTGGCC (sugars k3 d10 k3, PS) | -5%
66 | ACTACCATATCCAAAC (sugars k3 d10 k3, PS) | 27%
67 | CATCAGTAGTAAGAAT (sugars k3 d10 k3, PS) | 14%
68 | TCAAGTGGCCTTTTAA (sugars k3 d10 k3, PS) | -38%
69 | CCTTTCATAGAGCCTT (sugars k3 d10 k3, PS) | 69% and 90%

Row | Sequence | target mRNA inhibition
70 | CACTGATCACTTTAGA (sugars k3 d10 k3, PS) | 41%
71 | ACAATTACCTAAACCC (sugars k3 d10 k3, PS) | 33%
72 | AATCCCTTTACACCTC (sugars k3 d10 k3, PS) | 26%
73 | AGCTACCATCAGAAGA (sugars k3 d10 k3, PS) | 34%
74 | GCCTCAATGCCTACCG (sugars k3 d10 k3, PS) | -11%
75 | TTTTTACCAACCACTC (sugars k3 d10 k3, PS) | 26%
76 | AAAGTAGTTCTTCGGT (sugars k3 d10 k3, PS) | 17%
77 | TGAGGCAAGTCCTCAT (sugars k3 d10 k3, PS) | 5%
78 | ACTCGCTCCTTCCTGG (sugars k3 d10 k3, PS) | 48%
79 | ACCAGTCCTTTTAGTA (sugars k3 d10 k3, PS) | -2%
80 | TGAAAGAACTAGTGGT (sugars k3 d10 k3, PS) | 23%
81 | AACTAAGCTACTATAT (sugars k3 d10 k3, PS) | -2%
82 | CAAGTTAAACTTATCT (sugars k3 d10 k3, PS) | 16%
83 | CCACTTGATCCCAACT (sugars k3 d10 k3, PS) | 47%
84 | CATTGCCTCTTCATTG (sugars k3 d10 k3, PS) | 36%
85 | TGCCATCTACTATTTC (sugars k3 d10 k3, PS) | 19%
86 | ATGCTAGTCCTCAGGA (sugars k3 d10 k3, PS) | -20%
87 | AATGTACTCAGCTTCA (sugars k3 d10 k3, PS) | 48%
88 | CTTATTTAGAGGGCCT (sugars k3 d10 k3, PS) | 36%
89 | TTATCCTGATATTGGA (sugars k3 d10 k3, PS) | -12%
90 | GCTACTTAGCTGTGGT (sugars k3 d10 k3, PS) | 28%
91 | GACTGAATATGAACCA (sugars k3 d10 k3, PS) | 51% and 76%
92 | ACTGGTACACCCAGTG (sugars k3 d10 k3, PS) | -8%

Row | Sequence | target mRNA inhibition
93 | GAGGGCCTCTATTGCC (sugars k3 d10 k3, PS) | 14%
94 | CTGAAAGAACTAGTGG (sugars k3 d10 k3, PS) | 20%
95 | CCACTCTTGGAAAACG (sugars k3 d10 k3, PS) | 23%
96 | TGCGACTTGCTCCCAA (sugars k3 d10 k3, PS) | -13%
97 | CATACAAACTGCTTAC (sugars k3 d10 k3, PS) | 29%
98 | AAAAGTGGTTGCCCGC (sugars k3 d10 k3, PS) | 28%
99 | TGAAACCGATTATGGA (sugars k3 d10 k3, PS) | 3%
100 | TCCCATAATTGTAGTT (sugars k3 d10 k3, PS) | 27%
101 | AAGGCAAATCGCCATG (sugars k3 d10 k3, PS) | 14%
102 | GGTTTTAATACCCTTC (sugars k3 d10 k3, PS) | 51%
103 | CCTGATCTGGTCCATT (sugars k3 d10 k3, PS) | 44%
104 | GATCATAATCTCCCAC (sugars k3 d10 k3, PS) | 41%
105 | ATACTTCTCCAATACT (sugars k3 d10 k3, PS) | -15%
106 | TGCCTACCGCACAGCT (sugars k3 d10 k3, PS) | 19%
107 | AACACCCGGAAATCGG (sugars k3 d10 k3, PS) | 26%
108 | AAAGAACTAGTGGTTC (sugars k3 d10 k3, PS) | -4%
109 | ACAGCTAAGATAGCAG (sugars k3 d10 k3, PS) | 2%
110 | GTATTACTCTAATCAC (sugars k3 d10 k3, PS) | 34%
111 | ACTCTGATCTGCGGCC (sugars k3 d10 k3, PS) | 13%
112 | GCCCCCTCAGCAGAAG (sugars k3 d10 k3, PS) | 25%
113 | TGCAGTTTCTATAGTA (sugars k3 d10 k3, PS) | 9%
114 | TTGCCCTTCTATTGGT (sugars k3 d10 k3, PS) | 11%
